Test results: patent publication US20090176817A1, “Method of Treatment of Diarrhea-Predominant Irritable Bowel Syndrome in a Subject” (priority 2005, published 2009)
Read-outs that look alike come from different tables or passages of the source. Marks after values point to notes of the source that are not given here.

How the values were obtained:
[1] = clinical; conditions: male, human, in vivo
Experimental: The single- and multiple-dose pharmacokinetics of cilansetron 8 mg administered intravenously have been studied in a randomized, double-blind, placebo controlled, parallel group study in 12 male subjects (10 subjects received cilansetron 8 mg and 2 received placebo, administered as a 30-minute infusion). […] Doses on pharmacokinetic days were administered under fasted conditions. […] Renal elimination was again observed to be negligible (≦1% of dose).

[2] = system: healthy subjects; assay: Study K.241.5012: gastric emptying time, healthy young subjects; format: in vivo, human; conditions: mean (SD), not significant vs placebo
From the text: (§1) The effect of cilansetron on gastric emptying time and colonic transit time has been studied in 1 clinical study in healthy young subjects and 2 studies in elderly subjects. For measurement of gastric emptying time, breath samples for the determination of the ^12C/^13C ratio were taken on the last day of each treatment period immediately after ingestion of a ^13C labeled meal. The patients' breath was collected in separate 15-minute intervals, for four hours in total. ^13CO2 measurements were performed with an isotope ratio mass spectrometer. The half-life (TK) and lag-time (Tlag), which describe the duration of gastric emptying, were used as the primary parameters to evaluate gastric emptying time. In all 3 studies, colonic transit time was measured by administration of radio-opaque markers for the last six days of each treatment period, followed by a single abdominal X-ray image at 24 hours after ingestion of the last set of markers. The numbers of markers within the colon were used to calculate segmental (right colon, left colon, and rectosigmoid) and total colonic transit time.
Study K.241.5013 was a randomized, double-blind, placebo-controlled, 3-way crossover study in 12 healthy male subjects (ITT population), aged 20-27 years. Subjects received cilansetron 4 mg, cilansetron 8 mg, or placebo orally TID for 14 days during each of the treatment periods, with a 14-day washout between periods. The primary efficacy parameter was the total mean colonic transit time during each treatment and the secondary parameters were the segmental colonic transit times and the gastric emptying measurements. A one-sided Dunnett t-test procedure was used to compare efficacy parameters between the cilansetron and placebo treatments.

[3] = system: healthy, elderly subjects; assay: Study K.241.5014: gastric emptying time, elderly, 8 mg TID; format: in vivo, human; conditions: 8 mg TID oral 14 days, mean (SD)
From the text: as §1
Studies K.241.5013 and K.241.5014 were randomized, double-blind, placebo-controlled, 2-way crossover studies in 8 healthy male and female elderly subjects, each (ITT population, aged 64-83 years in K.241.5013 and 66-84 years in K.241.5014). […]

[4] = system: patients with malignant tumors; assay: Study K.241.5017: cisplatin-induced nausea and vomiting; format: in vivo, human; conditions: IV 8 mg TID
Experimental: The effect of cilansetron on nausea and vomiting has been studied in 2 clinical studies in cancer patients. Both studies were randomized, singleblind, positive-controlled, parallel-group, pilot studies in male and female patients with malignant tumors, to investigate the effect of cilansetron on cytostatic-induced nausea and vomiting. In both studies, patients were on their first cycle of chemotherapy and were being treated with cisplatin (275 mg/m2 as a single dose in Study S.24 1.2.10 1 and […] for 5 days in Study K.24 1 S O 17). Patients in Study S.24 1.2.10 1 were aged 40-74 years (ITT population=16) and patients in Study K.24 1 S O 17 were aged 39-74 years (ITT population=19). In both studies, patients were randomized to receive either […] or IV ondansetron 8 mg TID for 1 day (Study S.241.2.101) or 5 days (Study K.2415017), corresponding to the day(s) of their cisplatin administration. If nausea and vomiting were completely controlled on a treatment day, the second and/or third doses of cilansetron or ondansetron could be omitted on that day. The primary efficacy parameter in both studies was the combination of the occurrence of vomiting and the severity of nausea, with a responder being defined as a patient with no vomiting and not more than mild nausea during the treatment day(s). […]

[5] = in vivo
Experimental: Time to reach steady state following dosing with cilansetron 2 mg TID has been evaluated in a study in 9 healthy male and female subjects.

[6] = both, human, in vivo, 32 mg
Experimental: Two randomized, double-blind, placebo controlled, balanced incomplete block design, crossover studies evaluated the single- and multiple-dose pharmacokinetics of oral cilansetron over a 8 mg to 32 mg dose range. In both studies, subjects were randomized to receive two of three treatments during 2 treatment periods. In one study (12 male and 13 female subjects, aged 23 to 36 years), subjects received 8 mg cilansetron, 16 mg cilansetron, or placebo, while in another study (12 males and 13 females, aged 23 to 41 years), subjects received 16 mg cilansetron, 32 mg cilansetron, or placebo. During each treatment period, subjects received a single dose of their assigned treatment on the first day, followed by a 3-day washout, after which they received the same treatment TID for 5 days.
There was a 5-6 day washout period between treatment periods. Doses on the mornings of pharmacokinetic days were administered under fasted conditions. Serial blood sampling and urine collection was performed up to 12 hours following morning dosing on the first day (single dose) and on the last multiple dosing day of each treatment period, and cilansetron pharmacokinetic parameters were evaluated.
In two randomized, double-blind, placebo controlled, balanced incomplete block design, crossover studies evaluating the single- and multiple-dose pharmacokinetics of oral cilansetron over a 8 mg to 32 mg dose range, subjects were randomized to receive two of three treatments during 2 treatment periods. In Study S.241.1.101; (12 male and 13 female subjects, aged 23 to 36 years), subjects received 8 mg cilansetron, 16 mg cilansetron, or placebo, while in Study S.24 1.1.102; (12 males and 13 females, aged 23 to 41 years), subjects received 16 mg cilansetron, 32 mg cilansetron, or placebo. During each treatment period, subjects received a single dose of their assigned treatment on the first day, followed by a 3-day washout, after which they received the same treatment TID for 5 days. There was a 5-6 day washout period between treatment periods. Doses on the mornings of pharmacokinetic days were administered under fasted conditions. Serial blood sampling and urine collection was performed up to 12 hours following morning dosing on the first day (single dose) and on the last multiple dosing day of each treatment period, and cilansetron pharmacokinetic parameters were evaluated.

[7] = system: CYP2A6, CYP2B6, CYP2C9, CYP2D6, and CYP2E1
Experimental: The CYP mRNA induction potentials of cilansetron and its two main metabolites, (4S)-hydroxy and (4R)-hydroxy cilansetron, were determined in human hepatocytes and compared to three model inducers, 3-methylcholantrene, phenobarbital, and rifampin.

[8] = male, human, in vivo
Experimental: Subjects were treated with a single oral dose of cilansetron 8 mg (tablet) on Day 1, followed by 8 mg TID for 5 days (Days 2-6) and a single 8 mg dose on the morning of Day 7. Young subjects ranged in age from 19-45 years, and elderly from 66-79 years. Serial blood samples were collected up to 24 hours postdose on Days 1 and 7, and cilansetron pharmacokinetic parameters were calculated. Doses on pharmacokinetic sampling days were administered under fasted conditions.
Young subjects ranged in age from 19-45 years, and elderly from 66-79 years. Serial blood samples were collected up to 24 hours postdose on Days 1 and 7, and cilansetron pharmacokinetic parameters were evaluated. Doses on pharmacokinetic sampling days were administered under fasted conditions.

[9] = clinical; conditions: both, human, in vivo
Experimental: Diurnal variations in cilansetron pharmacokinetics have been evaluated in a randomized, double-blind, placebo-controlled, 2-way crossover study in 9 male and 9 female healthy subjects, aged 21 to 39 years. Subjects were randomized to receive 2 treatments (cilansetron 16 mg tablet and placebo) during the 2 treatment periods. During each treatment period, subjects received a single dose of their assigned treatment on the first day (Day 1), after which they received the same treatment TID for 4 days (Days 2-5). There was a 10-day washout period between treatment periods. Subjects were fasted for at least 2 hours before and following each dose, and heavy physical activity was restricted. Serial blood samples for the measurement of multiple-dose pharmacokinetics of cilansetron were collected up to 24 hours postdose on Day 5.

[10] = clinical; conditions: human, in vivo, 16 mg
Experimental: In a single-dose, crossover study conducted to evaluate the potential for a drug-drug interaction between liquid Maalox and cilansetron, 12 male and 12-female subjects (aged 19-39 years) received single doses of cilansetron 16 mg alone and cilansetron 16 mg+Maalox in a crossover fashion under fasted conditions. Blood samples for measurement of plasma cilansetron pharmacokinetics were collected up to 24 hours postdose following each treatment.
The effect of concomitantly administered antacid (liquid Maalox) on the pharmacokinetics of cilansetron has been evaluated in a single-dose, crossover study in 24 healthy, male and female subjects, aged 19 to 39 years. Subjects received the following two treatments during each of the study periods in a crossover fashion: a single oral dose of cilansetron 16 mg tablet (reference treatment); a single oral dose of cilansetron 16 mg tablet+20 mL oral Maalox liquid administered every 4 hours (test treatment; 4 doses of Maalox in total; cilansetron was administered 5 minutes after the first dose of Maalox). Both cilansetron treatments were administered under fasted conditions.

Question: What does the source list for `Cc1nccn1C[C@H]1CCc2c(c3cccc4c3n2CCC4)C1=O` [Cilansetron, (R)-(−)-4,5,6,8,9,10-hexahydro-10-[(2-methyl-1H-imidazol-1-yl)methyl]-11H-pyrido-[3,2,1-jk]-carbazol-11-one]?
Answer: Intersubject % CV for AUC [1]: 31-34%; Intrasubject % CV [1]: 18%; Renal elimination [1]: ≤ 1 % of dose; % Dose (urine) ([1]; iv): 0.44 (70) %; Linearity Ratio ([1]; iv): 118%; DN-AUC ([1]; iv, 8 mg): 22.8 (31) ng · h/mL; AUC ([1]; iv, 8 mg, AUC): 182 ng·h/mL; clearance ([1]; iv, 8 mg, CL): 792 mL/min; CL renal ([1]; iv, 8 mg, CLr): 3.29 mL/min; clearance ([1]; iv, 8 mg, Systemic plasma clearance): 800 mL/min; half-life ([1]; iv, 8 mg, T½): 1.7 h; gastric emptying time Tlag ([2]; 4 mg TID oral 14 days): 1.70 (0.22) hours; gastric emptying time T½ ([2]; 4 mg TID oral 14 days): 2.46 (0.35) hours; gastric emptying time Tlag ([2]; 8 mg TID oral 14 days): 1.63 (0.30) hours; gastric emptying time T½ ([2]; 8 mg TID oral 14 days): 2.38 (0.42) hours; gastric emptying time T½ [3]: 166 (18) min; gastric emptying time Tlag ([3]; significant vs placebo (p < 0.05)): 114 (18)* min; Response rate [4]: 21.4%; Steady state achieved by [5]: third day; DN-AUC [6]: 14.1 (61) ng · h/mL; Inductive effect on other CYP isozymes [7]: did not show an inductive effect; AUC(0-inf) [8]: 252 (123) ng · h/mL; Cmax ([9]; Cmax): 76.9 ng/mL; Tmax ([9]; Tmax): 1 h; AUC(0-inf) ([10]; both): 264 ng·h/mL; AUC(0-t) ([10]; both): 264 ng·h/mL; Cmax ([10]; both): 102 ng/mL; Vd/F ([10]; both): 237 L; half-life ([10]; both): 2.39 h; AUC(0-inf) ([10]; female): 361 ng·h/mL; AUC(0-t) ([10]; female): 360 ng·h/mL; Cmax ([10]; female): 137 ng/mL; Vd/F ([10]; female): 202 L; half-life ([10]; female): 2.97 h; AUC(0-inf) ([10]; male): 159 ng·h/mL; AUC(0-t) ([10]; male): 159 ng·h/mL; Cmax ([10]; male): 63.1 ng/mL; Vd/F ([10]; male): 276 L; half-life ([10]; male): 1.75 h
